Measured values as given in patent publication US12570639B2, “Tetrahydroquinoline derivative and medicinal use thereof” (Toray Industries, Inc., priority 2020, dated 2026).
pEC50: −log10 of the molar value.

Assays:
[1] = system: Human fibrosarcoma cells (HT-1080 cells); assay: In vitro inhibitory action against ferroptosis (Erastin-induced cell death, Cell Counting Kit-8); format: cell-based; settings: Erastin 3 μmol/L, 24 hours
[2] = In vitro radical scavenging action (DPPH method); settings: 30 minutes at room temperature, maximum concentration 100 μmol/L
[3] = system: MOG-induced experimental autoimmune encephalomyelitis mouse model; assay: Activity assessment 1 in MOG-induced experimental autoimmune encephalomyelitis mouse model; format: in vivo, C57BL/6J mice; settings: 30 mg/kg orally twice daily for 15 days starting 55 days after MOG35-55 inoculation
Protocol: The effect of the compound of Example 1 on increase of neurological score was assessed in the MOG-induced experimental autoimmune encephalomyelitis mouse model. The MOG-induced experimental autoimmune encephalomyelitis mouse model was produced according to the method of Jianfeng et al. (The Journal of Immunology, 2009, vol. 182, p. 4036-4045) with partial modification. A PBS solution prepared to contain a synthetic partial peptide of MOG (MOG35-55; CSBio) at a concentration of 4 mg/mL was mixed with an equal volume of Freund's complete adjuvant, and a total of 0.1 mL (0.05 mL per flank) of the resulting MOG35-55 dosing solution was inoculated intradermally into the bilateral flanks of C57BL/6J mice (male, 10 weeks old, Charles River Laboratories Japan, Inc.). On the day of inoculation of the MOG35-55 dosing solution and on the second day after the inoculation, 200 μL of pertussis toxin (Sigma Co. LLC) prepared at a concentration of 1 μg/mL was further administered intraperitoneally to the mice. A test compound was administered orally at a dose of 30 mg/kg twice daily for a period of 15 days starting 55 days after the inoculation of the MOG35-55 dosing solution. The test compound was suspended in a 0.5% methylcellulose solution (hereinafter referred to as vehicle), and the resulting suspension was used. […]

[4] = system: MOG-induced experimental autoimmune encephalomyelitis mouse model; assay: Activity assessment 5 in MOG-induced experimental autoimmune encephalomyelitis mouse model; format: in vivo, C57BL/6J mice; settings: 10 mg/kg orally twice daily for 15 days starting 52 days after MOG35-55 inoculation; vs vehicle-dosing group (2.13)
Protocol: (§1) A PBS solution prepared to contain a synthetic partial peptide of MOG (MOG35-55; CSBio) at a concentration of 4 mg/mL was mixed with an equal volume of Freund's complete adjuvant, and a total of 0.1 mL (0.05 mL per flank) of the resulting MOG35-55 dosing solution was inoculated intradermally into the bilateral flanks of C57BL/6J mice (male, 10 weeks old, Charles River Laboratories Japan, Inc.). On the day of inoculation of the MOG35-55 dosing solution and on the second day after the inoculation, 200 μL of pertussis toxin (Sigma Co. LLC) prepared at a concentration of 1 μg/mL was further administered intraperitoneally to the mice.
(§2) The compound of Example 11, the compound of Example 32, and the compound of Example 36 were used as test compounds to assess the effect of the test compounds on increase of neurological score in the MOG-induced experimental autoimmune encephalomyelitis mouse model. […] In addition, the score was determined by the following criteria: 0, normal; 0.5, partial drooping tail; 1, full drooping tail or hind-limb weakness; 2, full drooping tail and hind-limb weakness; 3, hind-limb partial paralysis; 4, hind-limb complete paralysis; 5, fore- and hind-limb complete paralysis. […]

[5] = system: MOG-induced experimental autoimmune encephalomyelitis mouse model; assay: Activity assessment 4 in MOG-induced experimental autoimmune encephalomyelitis mouse model; format: in vivo, C57BL/6J mice; settings: 10 mg/kg orally twice daily for 16 days starting 52 days after MOG35-55 inoculation; vs vehicle-dosing group (2.25)
Protocol: as §1, §2

[6] = system: MOG-induced experimental autoimmune encephalomyelitis mouse model; assay: Activity assessment 6 in MOG-induced experimental autoimmune encephalomyelitis mouse model; format: in vivo, C57BL/6J mice; settings: 10 mg/kg orally twice daily for 12 days starting 52 days after MOG35-55 inoculation; vs vehicle-dosing group (2.13)
Protocol: as §1, §2

[7] = evaluation concentration 30 μmol/L
[8] = evaluation concentration 10 μmol/L

Row | SMILES | Ferroptosis inhibition rate (%) [1, 7] | pEC50 [2] | neurological score ([3]; next day after last administration, mean, n=7) | neurological score reduction rate ([3]; vs vehicle-dosing group (2.43)) | neurological score reduction rate [4] | neurological score reduction rate [5] | Ferroptosis inhibition rate (%) [1, 8] | neurological score reduction rate [6]
1 | Cl.c1ccc(C2CCc3ccccc3N2)cc1 (stereo not shown) [Example 1, 2-phenyl-1,2,3,4-tetrahydroquinoline hydrochloride] | 110.5% | < 4.00 | 1.29 | 46.9% |  |  |  | 
2 | NS(=O)(=O)c1ccc(C2CCc3ccccc3N2)cc1 (stereo not shown) [Example 33, 4-(1,2,3,4-tetrahydroquinolin-2-yl)benzenesulfonamide] | 84.88% | < 4.00 |  |  | 38.2% |  |  | 
3 | NC(=O)c1ccc(C2CCc3ccccc3N2)cc1 (stereo not shown) [Example 38, 4-(1,2,3,4-tetrahydroquinolin-2-yl)benzamide] | 104.0% | < 4.00 |  |  |  | 27.8% |  | 
4 | NS(=O)(=O)c1ccc(C2CCc3cc(F)ccc3N2)cc1 (stereo not shown) [Example 108, 4-(6-fluoro-1,2,3,4-tetrahydroquinolin-2-yl)benzenesulfonamide] |  | < 4.00 |  |  |  |  | 83.78% | 29.4%
5 | NS(=O)(=O)c1ccc(C2CCc3cc(Cl)ccc3N2)cc1 (stereo not shown) [Example 117, 4-(6-chloro-1,2,3,4-tetrahydroquinolin-2-yl)benzenesulfonamide] |  | < 4.00 |  |  |  |  | 76.27% | 32.4%
6 | Cc1ccc2c(c1)CCC(c1ccc(S(N)(=O)=O)cc1)N2 (stereo not shown) [Example 119, 4-(6-methyl-1,2,3,4-tetrahydro-quinolin-2-yl)benzenesulfonamide] |  | < 4.00 |  |  |  | 33.3% | 89.67% | 
